Results on 12 sequences are retold here after patent US11179450B2, “Long chain antigen containing interepitope sequence that promotes antigen presentation to T cells” (MIE UNIVERSITY, priority 2013, dated 2021).

The subject of the first assay is NY p157 specific CD8+ T cell clone 1G4 cells. In words: Antigen presentation by LCL given CHP/long chain peptide vaccine, IFN-γ ELISPOT. Format: cell-based, human. The settings on record: FIG. 10; NMW peptide complexed with CHP given to LCL as antigen-presenting cells. The source says: Long chain peptide antigens NMW, all containing three types of human CD8+ T cell epitope sequences (NY p157:HLA-A0201 restrictive, MA4 p143:HLA-A2402 restrictive, and WT1: HLA-A2402 restrictive p235), were synthesized. The interepitode sequences between the respective epitopes were the six consecutive amino acids shown in FIG. 10, namely Sequence Nos. 18-26. Each long chain peptide antigen was complexed with cholesterol-modified pullulan (CHP), which is a type of delivery system, and administered in vitro as a vaccine to an immortalized human B cell line (LCL). Using these human B cells as the antigen-presenting cells, they were co-cultured with CD8+ T cell clone 1G4 cells specific to NY p157 and the activation of the 1G4 cells due to antigen presentation was measured by an IFN-γ ELISPOT method. As a positive control, LCL administered with an NY p157 short chain peptide was used as the antigen-presenting cells, and as a negative control, LCL without antigen added was used as the antigen-presenting cells.
Cryostored LCL was rinsed with RPMI medium and suspended at 1.25×10^6/mL in X-VIVO15 medium. This was dispensed in 0.4 mL aliquots into polypropylene tubes, and 0.1 mL of a vaccine solution (0.1 mg/mL as peptide) was added to each tube. The cells were cultured for 24 hours at 37° C. in the presence of 5% CO2 and then used as antigen-presenting cells.
75 μL aliquots of anti-IFN-γ antibody for capture, diluted to an appropriate concentration, were dispensed into a 96-well plate (Millipore Corp., Multiscreen HA, MAHAS4510) specially designed for ELISPOT and left to stand overnight at 4° C. After discarding the liquid and rinsing with RPMI medium, 100 μL aliquots of RPMI medium containing 10% fetal bovine serum were dispensed and the plate was left to stand for not less than 1 hour at 37° C. The liquid was discarded, and the LCL prepared in (9) or (10) was adjusted to 5×10^4 cells/100 μL/well and added to each well. The cryostored CD8^+ T cell clones were thawed, rinsed, adjusted to 5×10^5/mL with RPMI medium, and thereafter added in 0.1 mL aliquots to each well. After culturing for 24 hours at 37° C. in the presence of 5% CO2, the liquid was discarded and the plate was rinsed well with phosphate buffered saline containing 0.05% Tween 20 (PBS-T). A biotin-labeled IFN-γ antibody for detection was diluted to an appropriate concentration and dispensed in 0.1 mL aliquots into each well. After letting stand overnight at 4° C., the plate was rinsed well with PBS-T, and an alkaline phosphatase-labeled streptavidin diluted to an appropriate concentration was added in 0.1 mL aliquots. After incubating for 1 hour at room temperature, the plate was rinsed well with PBS-T. A coloring solution was added in 0.1 mL aliquots and allowed to react for 5 minutes to 30 minutes at room temperature. When the formation of spots was observed, the reaction was stopped by rinsing with water.
Consider “SLLMWITQCYYYYYYNYKRCFPVIYYYYYYCMTWNQMNL (Long chain peptide antigen, containing three types of human CD8+ T cell recognition epitope sequences (NY p157, MA4 p143, and WT1 p235)) [NMW(Y6)]”, for which the “activation of 1G4 cells” value is “clearly confirmed”.

On to “SLLMWITQCQQQQQQNYKRCFPVIQQQQQQCMTWNQMNL (Long chain peptide antigen, containing three types of human CD8+ T cell recognition epitope sequences (NY p157, MA4 p143, and WT1 p235)) [NMW(Q6)]”, for which the “activation of 1G4 cells” value is “clearly observed”. Same read-out and setting: the entry for “SLLMWITQCPPPPPPNYKRCFPVIPPPPPPCMTWNQMNL (Long chain peptide antigen, containing three types of human CD8+ T cell recognition epitope sequences (NY p157, MA4 p143, and WT1 p235)) [NMW(P6)]” is “not clearly confirmed”; for “SLLMWITQCAAAAAANYKRCFPVIAAAAAACMTWNQMNL (Long chain peptide antigen, containing three types of human CD8+ T cell recognition epitope sequences (NY p157, MA4 p143, and WT1 p235)) [NMW(A6)]” it is “clearly observed”; for “SLLMWITQCGGGGGGNYKRCFPVIGGGGGGCMTWNQMNL (Long chain peptide antigen, containing three types of human CD8+ T cell recognition epitope sequences (NY p157, MA4 p143, and WT1 p235)) [NMW(G6)]” it is “not clearly confirmed”. Turning to “SLLMWITQCNNNNNNNYKRCFPVINNNNNNCMTWNQML (SLLMWITQCNNNNNNNYKRCFPVINNNNNNCMTWNQMNL; Long chain peptide antigen, containing three types of human CD8+ T cell recognition epitope sequences (NY p157, MA4 p143, and WT1 p235)) [NMW(N6)]”, the “activation of 1G4 cells” value is given as “clearly observed”. Same read-out and setting: the entry for “SLLMWITQCSSSSSSNYKRCFPVISSSSSSCMTWNQMNL (Long chain peptide antigen, containing three types of human CD8+ T cell recognition epitope sequences (NY p157, MA4 p143, and WT1 p235)) [NMW(S6)]” is “clearly observed”.

The next assay deals with CD8+ T cells specific to MA p265, NY p81 and mERK2 9m. In words: Specific CD8+ T cell induction by CHP/long chain peptide vaccines in mice, intracellular cytokine staining of spleen cells. It counts as in vivo, BALB/c mice. The settings on record: FIG. 1; MEN antigens complexed with CHP, subcutaneous, CpG oligo DNA adjuvant; spleen cells one week after final administration. The source says: Long chain peptide antigens MEN, all containing three types of mouse CD8+ T cell epitope sequences (MA p265 (Sequence No. 27), NY p81 (Sequence No. 29), and mERK2 9m (Sequence No. 28)), were synthesized. The interepitope sequences between the respective epitopes were respectively six consecutive tyrosines (Y6) (Sequence No. 1), six consecutive glycines (G6) (Sequence No. 2), six consecutive prolines (P6) (Sequence No. 3), or six consecutive threonines (T6) (Sequence No. 4). Each long chain peptide antigen was complexed with cholesterol-modified pullulan (CHP), which is a type of delivery system, and administered as a vaccine to a mouse. In the process of administration, CpG oligo DNA was coadministered as an adjuvant. Spleen cells were collected one week after the final administration and the frequencies of CD8+ T cells specific to the respective epitope sequences were measured by an intracellular cytokine staining method.
Long chain peptide antigens NME, all containing three types of mouse CD8+ T cell epitope sequences (MA p265 (Sequence No. 27), NY p81 (Sequence No. 29), and mERK2 9m (Sequence No. 28)), were synthesized. The antigens differ from the MEN sequences shown in FIG. 1 in the order of the three types of epitopes. The interepitope sequences between the respective epitopes were respectively six consecutive tyrosines (Y6) (Sequence No. 5), six consecutive glycines (G6) (Sequence No. 6), or six consecutive prolines (P6) (Sequence No. 7). Vaccines containing the respective long chain peptide antigens were administered to mice in the same manner as in FIG. 1 and the frequencies of CD8+ T cells specific to the respective epitope sequences were measured by the intracellular cytokine staining method.
Long chain peptide antigens MEN, ENM, and NME, all containing three types of mouse CD8+ T cell epitope sequences (MA p265 (Sequence No. 27), NY p81 (Sequence No. 29), and mERK2 9m (Sequence No. 28)), were synthesized. MEN, ENM, and […] in the order of the three types of epitopes. The interepitope sequences between the respective epitopes were each six consecutive tyrosines (Y6) (Sequence Nos. 1, 5 and 8). Vaccines containing the respective long chain peptide antigens were administered to mice in the same manner as in FIG. 1 and the frequencies of CD8+ T cells specific to the respective epitope sequences were measured by the intracellular cytokine staining method.
Each long chain peptide was dissolved in dimethyl sulfoxide (DMSO) at a concentration of 10 mg/mL. CHP was dissolved in 6 M urea-containing phosphate buffered saline (PBS) at a concentration of 10 mg/mL 1 mL (10 mg) of the long chain peptide solution and 20 mL (200 mg) of the CHP solution were mixed and left to stand at room temperature overnight in a dark place. The liquid mixture was transferred into a dialysis membrane (molecular weight cutoff: 3,500; Thermo Fisher Scientific, Inc.) and dialyzed for 2 hours to overnight at 4° C. against 0.6 M urea-containing PBS of a volume ratio of not less than 100 times as the dialysis outer solution. Dialysis was then performed for 2 hours to overnight at 4° C. against 0.06 M urea-containing PBS of a volume ratio of not less than 100 times as the dialysis outer solution. Dialysis was performed again for 2 hours to overnight at 4° C. against PBS of a volume ratio of not less than 100 times as the dialysis outer solution. The dialyzed inner solution was collected, filtered through a filtration sterilization filter of 0.45 μm or 0.22 μm pore size, and thereafter the UV absorption at 280 nm was measured to determine the final concentration of the long chain peptide from its molecular extinction coefficient.
Each CHP/long chain peptide complex as the vaccine and the CpG oligo DNA as the adjuvant were administered at the same time to a mouse. Administration was performed by subcutaneous injection on the back of the mouse. […]
Take “SNPARYEFLTTTTTTQYIHSANVLTTTTTTRGPESRLL (Long chain peptide antigen, containing three types of mouse CD8+ T cell epitope sequences (MA p265, NY p81, and mERK2 9m)) [MEN(T6)]”: the “induction of specific CD8+ T cells corresponding to all three types of epitopes” value (“induction” below) was “clearly induced”.

Staying with this assay, now noted: FIG. 3; NME antigens (different epitope order) complexed with CHP, CpG oligo DNA.
For the sequence “RGPESRLLYYYYYYSNPARYEFLYYYYYYQYIHSANVL (Long chain peptide antigen, containing three types of mouse CD8+ T cell epitope sequences (MA p265, NY p81, and mERK2 9m)) [NME(Y6)]”, the “induction” value is “clearly induced”.

As to “RGPESRLLGGGGGGSNPARYEFLGGGGGGQYIHSANVL (Long chain peptide antigen, containing three types of mouse CD8+ T cell epitope sequences (MA p265, NY p81, and mERK2 9m)) [NME(G6)]”, the “induction” value is reported as “not observed for one or two types of epitopes among the three types of epitopes”. Take “RGPESRLLPPPPPPSNPARYEFLPPPPPPQYIHSANVL (Long chain peptide antigen, containing three types of mouse CD8+ T cell epitope sequences (MA p265, NY p81, and mERK2 9m)) [NME(P6)]”: the “induction” value is “not observed for one or two types of epitopes among the three types of epitopes”.

Still in this assay, the particulars now being: FIG. 4; MEN, ENM, NME epitope orders, interepitope sequence fixed at Y6.
“RGPESRLLYYYYYYSNPARYEFLYYYYYYQYIHSANVL (Long chain peptide antigen, containing three types of mouse CD8+ T cell epitope sequences (MA p265, NY p81, and mERK2 9m)) [NME(Y6)]”: the “induction” value was “clearly induced”. Still for that read-out and setting: next, “QYIHSANVLYYYYYYRGPESRLLYYYYYYSNPARYEFL (Long chain peptide antigen, containing three types of mouse CD8+ T cell epitope sequences (MA p265, NY p81, and mERK2 9m)) [ENM(Y6)]”: “clearly induced”.
